Measurements as given in publication PMC12150326 (The Journal of Organic Chemistry, 2025).

Legend:
Type in all cases: cell-based, human
786-0 = system: 786-0
How it was run: (§1)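 Concentrations tested in the NCI-60 panel were 0.01, 0.1, 1, 10 and 100 μM. The endpoint taken forward was TGI, whose pattern across lines was run through COMPARE alongside earlier tubulin inhibitors.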

OVCAR-4 = system: OVCAR-4
How it was run: as §1

MCF7 = system: MCF7
How it was run: as §1

HCT-15 = system: HCT-15
How it was run: as §1

SF-539 = system: SF-539
How it was run: as §1

SNB-75 = system: SNB-75
How it was run: as §1

RPMI-8226 = system: RPMI-8226
How it was run: as §1

OVCAR-8 = system: OVCAR-8
How it was run: as §1

LOX IMVI = system: LOX IMVI
How it was run: (§2)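 Both axial enantiomers of the parent and of the iso series were evaluated in the NCI cancer cell panel at doses of 100 μM, 10 μM, 1 μM, 0.1 μM and 0.01 μM.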

SR = system: SR
How it was run: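 NCI-60 panel, 5-dose format (100 μM → 0.01 μM, tenfold steps). TGI values used for COMPARE vs. known tubulin inhibitors.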

UO-31 = system: UO-31
How it was run: as §1

HT29 = system: HT29
How it was run: as §1

BT-549 = system: BT-549
How it was run: as §1

SNB-19 = system: SNB-19
How it was run: as §2

A549/ATCC = system: A549/ATCC
How it was run: as §1

NCI/ADR-RES = system: NCI/ADR-RES
How it was run: as §1

MDA-MB-468 = system: MDA-MB-468
How it was run: as §1

CAKI-1 = system: CAKI-1
How it was run: as §1

SN12C = system: SN12C
How it was run: as §1

SW-620 = system: SW-620
How it was run: as §1

EKVX = system: EKVX
How it was run: as §2

COLO 205 = system: COLO 205
How it was run: as §1

HCC-2998 = system: HCC-2998
How it was run: as §1

NCI-H522 = system: NCI-H522
How it was run: as §1

NCI-H226 = system: NCI-H226
How it was run: as §1

K-562 = system: K-562
How it was run: as §1

NCI-H460 = system: NCI-H460
How it was run: as §1

COc1cc(C)c(-c2ccc(=O)c(OC)cc2C)c(OC)c1OC (single isomer, unassigned) [(aR)-iso-6]
> -4.00 Molar: Log10GI50 (786-0) | Log10LC50 (786-0) | Log10TGI (786-0) | Log10GI50 (OVCAR-4) | Log10LC50 (OVCAR-4) | Log10TGI (OVCAR-4) | Log10GI50 (MCF7) | Log10LC50 (MCF7) | Log10TGI (MCF7) | Log10GI50 (HCT-15) | Log10LC50 (HCT-15) | Log10TGI (HCT-15) | Log10GI50 (SF-539) | Log10LC50 (SF-539) | Log10TGI (SF-539) | Log10LC50 (SNB-75) | Log10TGI (SNB-75) | Log10GI50 (RPMI-8226) | Log10LC50 (RPMI-8226) | Log10TGI (RPMI-8226) | Log10GI50 (OVCAR-8) | Log10LC50 (OVCAR-8) | Log10TGI (OVCAR-8) | Log10GI50 (LOX IMVI) | Log10LC50 (LOX IMVI) | Log10TGI (LOX IMVI) | Log10GI50 (SR) | Log10LC50 (SR) | Log10TGI (SR) | Log10GI50 (UO-31) | Log10LC50 (UO-31) | Log10TGI (UO-31) | Log10GI50 (HT29) | Log10LC50 (HT29) | Log10TGI (HT29) | Log10GI50 (BT-549) | Log10LC50 (BT-549) | Log10TGI (BT-549) | Log10GI50 (SNB-19) | Log10LC50 (SNB-19) | Log10TGI (SNB-19) | Log10GI50 (A549/ATCC) | Log10LC50 (A549/ATCC) | Log10TGI (A549/ATCC) | Log10GI50 (NCI/ADR-RES) | Log10LC50 (NCI/ADR-RES) | Log10TGI (NCI/ADR-RES) | Log10GI50 (MDA-MB-468) | Log10LC50 (MDA-MB-468) | Log10TGI (MDA-MB-468) | Log10GI50 (CAKI-1) | Log10LC50 (CAKI-1) | Log10TGI (CAKI-1) | Log10GI50 (SN12C) | Log10LC50 (SN12C) | Log10TGI (SN12C) | Log10GI50 (SW-620) | Log10LC50 (SW-620) | Log10TGI (SW-620) | Log10GI50 (EKVX) | Log10LC50 (EKVX) | Log10TGI (EKVX) | Log10GI50 (COLO 205) | Log10LC50 (COLO 205) | Log10TGI (COLO 205) | Log10GI50 (HCC-2998) | Log10LC50 (HCC-2998) | Log10TGI (HCC-2998) | Log10GI50 (NCI-H522) | Log10LC50 (NCI-H522) | Log10TGI (NCI-H522) | Log10GI50 (NCI-H226) | Log10LC50 (NCI-H226) | Log10TGI (NCI-H226) | Log10GI50 (K-562) | Log10LC50 (K-562) | Log10TGI (K-562) | Log10GI50 (NCI-H460) | Log10LC50 (NCI-H460) | Log10TGI (NCI-H460)
-4.40 Molar: Log10GI50 (SNB-75)

COc1cc(C)c(-c2ccc(OC)c(=O)cc2C)c(OC)c1OC (single isomer, unassigned) [(aS)-6]
-4.38 Molar: Log10GI50 (K-562)
> -4.00 Molar: Log10GI50 (786-0) | Log10LC50 (786-0) | Log10TGI (786-0) | Log10GI50 (OVCAR-4) | Log10LC50 (OVCAR-4) | Log10TGI (OVCAR-4) | Log10GI50 (MCF7) | Log10LC50 (MCF7) | Log10TGI (MCF7) | Log10GI50 (HCT-15) | Log10LC50 (HCT-15) | Log10TGI (HCT-15) | Log10GI50 (SF-539) | Log10LC50 (SF-539) | Log10TGI (SF-539) | Log10GI50 (SNB-75) | Log10LC50 (SNB-75) | Log10TGI (SNB-75) | Log10GI50 (RPMI-8226) | Log10LC50 (RPMI-8226) | Log10TGI (RPMI-8226) | Log10GI50 (OVCAR-8) | Log10LC50 (OVCAR-8) | Log10TGI (OVCAR-8) | Log10GI50 (LOX IMVI) | Log10LC50 (LOX IMVI) | Log10TGI (LOX IMVI) | Log10GI50 (SR) | Log10LC50 (SR) | Log10TGI (SR) | Log10GI50 (UO-31) | Log10LC50 (UO-31) | Log10TGI (UO-31) | Log10GI50 (HT29) | Log10LC50 (HT29) | Log10TGI (HT29) | Log10GI50 (BT-549) | Log10LC50 (BT-549) | Log10TGI (BT-549) | Log10GI50 (SNB-19) | Log10LC50 (SNB-19) | Log10TGI (SNB-19) | Log10GI50 (A549/ATCC) | Log10LC50 (A549/ATCC) | Log10TGI (A549/ATCC) | Log10GI50 (NCI/ADR-RES) | Log10LC50 (NCI/ADR-RES) | Log10TGI (NCI/ADR-RES) | Log10LC50 (MDA-MB-468) | Log10TGI (MDA-MB-468) | Log10GI50 (CAKI-1) | Log10LC50 (CAKI-1) | Log10TGI (CAKI-1) | Log10GI50 (SN12C) | Log10LC50 (SN12C) | Log10TGI (SN12C) | Log10GI50 (SW-620) | Log10LC50 (SW-620) | Log10TGI (SW-620) | Log10GI50 (EKVX) | Log10LC50 (EKVX) | Log10TGI (EKVX) | Log10GI50 (COLO 205) | Log10LC50 (COLO 205) | Log10TGI (COLO 205) | Log10GI50 (HCC-2998) | Log10LC50 (HCC-2998) | Log10TGI (HCC-2998) | Log10GI50 (NCI-H522) | Log10LC50 (NCI-H522) | Log10TGI (NCI-H522) | Log10GI50 (NCI-H226) | Log10LC50 (NCI-H226) | Log10TGI (NCI-H226) | Log10LC50 (K-562) | Log10TGI (K-562) | Log10GI50 (NCI-H460) | Log10LC50 (NCI-H460) | Log10TGI (NCI-H460)
-4.20 Molar: Log10GI50 (MDA-MB-468)
